Test results published in patent EP2530078A1, “THIAZOLE DERIVATIVE” (Takeda Pharmaceutical Company Limited, priority 2010, dated 2011).

How the values were obtained:
human GPR52 = biological target: T1, human GPR52 (Homo sapiens, UniProt Q9Y2T5); experiment: Increase of intracellular cAMP concentration in human GPR52-expressing CHO cell (AlphaScreen cAMP assay); format: cell-based; conditions: test compound 10 µm, 37°C, 30 min, human GPR52-expressing CHO(dhfr-) cells, 100% = cAMP with 1 µM N-(2-hydroxyethyl)-3-[2-[3-(trifluoromethyl)benzyl]-1-benzofuran-4-yl]benzamide, 0% = DMSO; for activation at 10 µM: 0.5 h, read-out: GPR52 agonist activity (%)
T1 construct: expressed in transfected cells; host or cells: CHO(dhfr-) cells
T1 sequence (Q9Y2T5 whole entry): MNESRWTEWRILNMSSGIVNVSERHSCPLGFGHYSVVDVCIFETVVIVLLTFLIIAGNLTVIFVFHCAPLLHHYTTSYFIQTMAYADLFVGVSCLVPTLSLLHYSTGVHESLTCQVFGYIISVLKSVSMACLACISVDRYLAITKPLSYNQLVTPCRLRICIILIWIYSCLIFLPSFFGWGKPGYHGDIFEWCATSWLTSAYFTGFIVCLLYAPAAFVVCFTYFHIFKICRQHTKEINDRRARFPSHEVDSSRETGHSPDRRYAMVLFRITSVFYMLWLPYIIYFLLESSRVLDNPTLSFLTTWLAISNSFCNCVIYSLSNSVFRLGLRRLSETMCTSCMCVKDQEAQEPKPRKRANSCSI
Description: Increase of intracellular cAMP concentration in human GPR52-expressing CHO cell
Using OptiPlate-384 (PerkinElmer Inc.), 1×10^4 human GPR52-expressing CHO(dhfr-) cells were incubated together with a test compound ([…]) in an assay buffer (30 µL, HBSS (containing Ca^2+ and Mg^2+), 0.5% BSA, 100 µM IBMX, 100 µM Ro20-1724, 5 mM HEPES (pH 7.55)) at 37°C for 30 min. Thereafter, according to the protocol of AlphaScreen cAMP Assay Kit (PerkinElmer Inc.), the intracellular cAMP concentration was measured by EnVision (PerkinElmer Inc.). The GPR52 agonist activity was calculated, assuming the intracellular cAMP concentration in the presence of 1 µM N-(2-hydroxyethyl)-3-[2-[3-(trifluoromethyl)benzyl]-1-benzofuran-4-yl]benzamide to be 100% and assuming the intracellular cAMP concentration when DMSO was added instead of the test compound to be 0%.

[1] = tested on: methamphetamine-induced locomotor hyperactivity in mice; experiment: Inhibition test of methamphetamine-induced locomotor hyperactivity; format: in vivo; conditions: male ICR mice, test compound 30 mg/kg body weight orally, methamphetamine 2 mg/kg body weight subcutaneously 60 min later; relative to vehicle treatment group
Description: Inhibition test of methamphetamine-induced locomotor hyperactivity
The compound of the present invention can be evaluated by assessing its capacity to inhibit methamphetamine-induced locomotor hyperactivity in mice. The method of Okuyama et al (Life Science, Vol. 65, p. 2109-2125 (1999)) was modified and used for testing the inhibition of methamphetamine-induced locomotor hyperactivity.
Locomotor activity was measured using a 32-channel locomotor activity measurement device MDC-LT (BrainScience Idea Co., Ltd.), which emits infrared beams from the top of a cage (30 cm x 40 cm x 20 cm). 6- to 8-Week-old male ICR mice were acclimated for at least 45 min in the measurement cages, and then either test compound (30 mg/kg body weight) dissolved in vehicle (0.5% aqueous methylcellulose solution) or the vehicle alone was orally administered to the laboratory animals. This oral administration was followed 60 min later by subcutaneous administration of methamphetamine (2 mg/kg body weight).
The number of times the laboratory animals passed through the infrared beams emitted inside the measurement cages in 150 min after administration of the test compound or vehicle was counted to quantify locomotor activity. The methamphetamine-induced locomotor hyperactivity inhibition rate (activity inhibition rate (%)) was calculated by the following equation. Activityinhibitionrate(%) = {1-(locomotoractivityoftestcompoundtreatmentgroupaftertreatmentwithmethamphetamine÷locomotoractivityofvehicletreatmentgroupaftertreatmentwithmethamphetamine)}x100 [formula]

activation at 10 µM (human GPR52) | GPR52 agonist activity (%) (human GPR52) | Structure (SMILES) | motor activity suppression rate (%) [1]
84% | – | Cc1nn(C)cc1C(=O)Nc1sc(Cc2cc(F)cc(Cl)c2)nc1C [Example 146, N-[2-(3-chloro-5-fluorobenzyl)-4-methyl-1,3-thiazol-5-yl]-1,3-dimethyl-1H-pyrazole-4-carboxamide] | 42%
76% | – | CCn1nccc1C(=O)Nc1sc(Cc2cc(F)cc(Cl)c2)nc1C [Example 148, N-[2-(3-chloro-5-fluorobenzyl)-4-methyl-1,3-thiazol-5-yl]-1-ethyl-1H-pyrazole-5-carboxamide] | 67%
95% | – | Cc1nc(Cc2cc(F)cc(Cl)c2)sc1NC(=O)c1ccnn1C [Example 145, N-[2-(3-chloro-5-fluorobenzyl)-4-methyl-1,3-thiazol-5-yl]-1-methyl-1H-pyrazole-5-carboxamide] | 47%
– | 81% | Cc1nc(Cc2cccc(C(F)(F)F)c2)sc1NC(=O)c1ccnn1C [Example 3, 1-methyl-N-{4-methyl-2-[3-(trifluoromethyl)benzyl]-1,3-thiazol-5-yl}-1H-pyrazole-5-carboxamide] | 32%
72% | – | CCCn1nccc1C(=O)Nc1sc(Cc2cc(F)cc(Cl)c2)nc1C [Example 153, N-[2-(3-chloro-5-fluorobenzyl)-4-methyl-1,3-thiazol-5-yl]-1-propyl-1H-pyrazole-5-carboxamide] | 39%
78% | – | COCc1nc(Cc2cccc(C(F)(F)F)c2)sc1NC(=O)c1ccnn1C [Example 8, N-{4-(methoxymethyl)-2-[3-(trifluoromethyl)benzyl]-1,3-thiazol-5-yl}-1-methyl-1H-pyrazole-5-carboxamide] | –
94% | – | Cc1nc(Cc2cc(F)cc(Cl)c2)sc1NC(=O)c1c(C)noc1C [Example 186, N-[2-(3-chloro-5-fluorobenzyl)-4-methyl-1,3-thiazol-5-yl]-3,5-dimethylisoxazole-4-carboxamide] | –
77% | – | Cc1nc(Cc2cc(F)cc(Cl)c2)sc1NC(=O)C1CCS(=O)(=O)C1 (stereo not drawn) [Example 216, N-[2-(3-chloro-5-fluorobenzyl)-4-methyl-1,3-thiazol-5-yl]-tetrahydrothiophene-3-carboxamide 1,1-dioxide] | –
88% | – | Cc1nc(Cc2cc(F)cc(Cl)c2)sc1NC(=O)c1cc(CO)nn1C [Example 166, N-[2-(3-chloro-5-fluorobenzyl)-4-methyl-1,3-thiazol-5-yl]-3-(hydroxymethyl)-1-methyl-1H-pyrazole-5-carboxamide] | –
80% | – | Cc1nc(Cc2cccc(Br)c2)sc1NC(=O)c1ccnn1C [Example 224, N-[2-(3-bromobenzyl)-4-methyl-1,3-thiazol-5-yl]-1-methyl-1H-pyrazole-5-carboxamide] | –
99% | – | Cc1nc(Cc2cc(F)cc(C3CC3)c2)sc1NC(=O)c1ccnn1C [Example 249, N-[2-(3-cyclopropyl-5-fluorobenzyl)-4-methyl-1,3-thiazol-5-yl]-1-methyl-1H-pyrazole-5-carboxamide] | –
69% | – | Cc1nc(Cc2cc(F)cc(Cl)c2)sc1NC(=O)c1ccnn1C(C)C [Example 151, N-[2-(3-chloro-5-fluorobenzyl)-4-methyl-1,3-thiazol-5-yl]-1-(1-methylethyl)-1H-pyrazole-5-carboxamide] | –
83% | – | Cn1nccc1C(=O)Nc1sc(Cc2cccc(C(F)(F)F)c2)nc1CO [Example 6, N-{4-(hydroxymethyl)-2-[3-(trifluoromethyl)benzyl]-1,3-thiazol-5-yl}-1-methyl-1H-pyrazole-5-carboxamide] | –
– | 78% | Cc1cc(C(=O)Nc2sc(Cc3cccc(C(F)(F)F)c3)nc2C)c(C)o1 [Example 26, 2,5-dimethyl-N-{4-methyl-2-[3-(trifluoromethyl)benzyl]-1,3-thiazol-5-yl}furan-3-carboxamide] | –
87% | – | Cc1nc(Cc2cc(F)cc(Cl)c2)sc1NC(=O)c1scnc1C [Example 184, N-[2-(3-chloro-5-fluorobenzyl)-4-methyl-1,3-thiazol-5-yl]-4-methyl-1,3-thiazole-5-carboxamide] | –
78% | – | Cc1cc(C(=O)Nc2sc(Cc3cc(F)cc(Cl)c3)nc2C)n(C)n1 [Example 147, N-[2-(3-chloro-5-fluorobenzyl)-4-methyl-1,3-thiazol-5-yl]-1,3-dimethyl-1H-pyrazole-5-carboxamide] | –
81% | – | Cc1nc(Cc2cc(F)cc(Cl)c2)sc1NC(=O)c1cccn1C [Example 185, N-[2-(3-chloro-5-fluorobenzyl)-4-methyl-1,3-thiazol-5-yl]-1-methyl-1H-pyrrole-2-carboxamide] | –
72% | – | Cc1nc(Cc2cccc(C(F)(F)F)c2)sc1NC(=O)c1nccn1C [Example 41, 1-methyl-N-{4-methyl-2-[3-(trifluoromethyl)-benzyl]-1,3-thiazol-5-yl}-1H-imidazole-2-carboxamide] | –
76% | – | Cc1nc(Cc2cc(F)cc(Cl)c2)sc1NC(=O)c1cc(CS(C)(=O)=O)nn1C [Example 242, N-[2-(3-chloro-5-fluorobenzyl)-4-methyl-1,3-thiazol-5-yl]-1-methyl-3-[(methylsulfonyl)methyl]-1H-pyrazole-5-carboxamide] | –
– | 93% | Cc1nocc1C(=O)Nc1sc(Cc2cccc(C(F)(F)F)c2)nc1C [Example 24, 3-methyl-N-{4-methyl-2-[3-(trifluoromethyl)benzyl]-1,3-thiazol-5-yl}isoxazole-4-carboxamide] | –
72% | – | Cc1nc(Cc2cc(F)cc(Cl)c2)sc1NC(=O)C1CCS(=O)(=O)CC1 [Example 208, N-[2-(3-chloro-5-fluorobenzyl)-4-methyl-1,3-thiazol-5-yl]-tetrahydro-2H-thiopyran-4-carboxamide 1,1-dioxide] | –
80% | – | Cc1nc(Cc2cc(F)cc(Cl)c2)sc1NC(=O)c1cc(C(N)=O)nn1C [Example 164, N^5-[2-(3-chloro-5-fluorobenzyl)-4-methyl-1,3-thiazol-5-yl]-1-methyl-1H-pyrazole-3,5-dicarboxamide] | –
